Reference: patent publication US20100240642A1, “1H-Indole-2-Carboxylic Acid Derivatives Useful As PPAR Modulators” (SMITHKLINE BEECHAM CORPORATION, priority 2006, published 2010)

Target: T1, hPPARγ receptor (Homo sapiens, UniProt P37231)
T1 construct: expressed in transfected cells; host or cells: CV-1 (African Green Monkey kidney, ATCC CCL-70)
T1 sequence (P37231 172-475 isoform P37231-2): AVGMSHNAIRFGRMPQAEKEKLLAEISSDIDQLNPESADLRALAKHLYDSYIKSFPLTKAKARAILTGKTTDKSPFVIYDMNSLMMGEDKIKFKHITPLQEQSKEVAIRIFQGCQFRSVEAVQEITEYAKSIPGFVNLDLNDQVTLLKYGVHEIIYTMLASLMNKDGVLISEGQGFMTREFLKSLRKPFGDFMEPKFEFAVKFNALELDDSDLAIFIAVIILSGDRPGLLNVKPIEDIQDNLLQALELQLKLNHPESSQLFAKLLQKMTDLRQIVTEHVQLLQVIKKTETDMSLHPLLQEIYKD
Assay: PPARγ Cell-based luciferase assay
Settings: CV-1 cells transfected with GAL4-hPPARγ LBD and UAStkLuc; at concentrations of 10^−6 M or less; read-out: agonism of the hPPARγ receptor (activation relative to full agonist rosiglitazone)
Excerpt: Plasmids—PCR primers containing Kpnl and BamHI restriction sites were used to amplify PPARγ ligand binding domain (LBD) fragment (172-475) from a full-length human clone. The LBD fragment was ligated into the multiple cloning site of pFA-CMV (Stratagene). The resulting construct (pFA-CMV-GAL4-hPPARγLBD carried a fusion of the LBD with the yeast-derived GAL4 DNA-binding domain under the control of the CMV immediate early promoter. Reporter construct UAStkLuc carries a single 17 bp (CGGAGTACTGTCCTCCG) upstream activating sequence (UAS), the tk minimal promoter, and the firefly luciferase gene. The integrity of each construct was confirmed by diagnostic restriction digestion and by sequencing. Plasmid DNA was prepared using Qiagen Maxi-Prep kits.
PPARγ Cell-based luciferase assay—African Green Monkey kidney cell line CV-1 (ATCC CCL-70) was maintained in Dulbecco's Modified Eagle's Medium (D-MEM) containing 10% fetal bovine serum, 2 mM glutamine, and 1% penicillin/streptomycin (pen/strep). In preparation for luciferase assays, CV-1 cells were grown in charcoal-stripped cell medium containing D-MEM/F-12 medium supplemented with 5% or 3% dextran-treated/charcoal-stripped (CS) fetal bovine serum, 2 mM glutamine, with or without 1% pen/strep, as described below. CS fetal bovine serum was purchased from Hyclone; all other cell culture reagents were from Gibco.
The luciferase protocol is a multi-day procedure. On day 1, confluent cells in maintenance medium were subcultured 1:10 into T-175 cm^2 flasks containing 50 mL of 3% CS medium with pen/strep. These flasks were allowed to incubate at 5% CO2 and 37° C. for 72 hours.
Cells were harvested by trypsinization and then transfected using FuGENE (Roche) according to the manufacturer's specifications. Briefly, each transfection contained 0.55 μg pFA_CMV_GAL4_hPPARγ_LBD plasmid, 10.9 μg UAStkLUC, and 24 μg pBluescript (carrier DNA). Plasmid DNA was mixed with FuGENE in OptiMEM-1 medium and incubated for 30 min at room temperature. During this incubation, cells were harvested into 3% CS medium without pen-strep and dispensed at 14 million cells per T-175 cm^2 flask. Transfection mixes were added to the flasks and incubated overnight at 5% CO2 and 37° C.
Transfected cells were added to 384-well plates containing pharmacological agents. Rosiglitazone standard was reconstituted in DMSO at 1 mM. For 11-point dose-response experiments, the compounds were 3-fold serially diluted in DMSO and then stamped to 384-well assay plates (NUNC, catalog #164564) at 0.5 μL/well using a Beckman FX. DMSO and agonist control compound Rosiglitazone (1 mM) were each stamped at 0.5 μL/well to columns 23 and 24, respectively, of the 384-well plates. Transfected cells were harvested in 5% CS medium with pen/strep and dispensed at 10,000 cells/well (50 μL) onto the prepared 384-well compound plates using a Titertek Multidrop. Following overnight incubation at 5% CO2 and 37° C., Steady-Glo reagent (Promega) was added to the assay plates using a Multidrop. Plates were incubated for 10 min to ensure complete cell lysis and read in a ViewLux (PerkinElmer). […] Partial agonism is defined here as 20-80% activation (relative to full agonist rosiglitazone) at concentrations of 10^−6 M or less.

Row | Emax [%] | Compound
1 | 20 to 80 | COC(=O)N1CCN(c2cccc(Cn3c(C(=O)O)c(-c4ccc(C(C)(C)C)cc4)c4ccccc43)c2)CC1 [Example 36, 3-[4-(1,1-dimethylethyl)phenyl]-1-[(3-{4-[(methyloxy)carbonyl]-1-piperazinyl}phenyl)methyl]-1H-indole-2-carboxylic acid]
2 | 20 to 80 | COCCOc1cc(Cn2c(C(=O)O)c(Cc3cccc(C(F)(F)F)c3)c3ccccc32)cc(OCCOC)c1 [Example 58, 1-[(3,5-bis{[2-(methyloxy)ethyl]oxy}phenyl)methyl]-3-{[3-(trifluoromethyl)phenyl]methyl}-1H-indole-2-carboxylic acid]
3 | 20 to 80 | CC(C)(C)c1ccc(-c2c(C(=O)O)n(Cc3cccc(N4CCS(=O)(=O)CC4)c3)c3ccccc23)cc1 [Example 45, 3-[4-(1,1-dimethylethyl)phenyl]-1-{[3-(1,1-dioxido-4-thiomorpholinyl)phenyl]methyl}-1H-indole-2-carboxylic acid]
4 | 20 to 80 | COCCOc1cc(Cn2c(C(=O)O)c(-c3ccc(C(C)(C)C)cc3)c3ccccc32)cc(OC(=O)N2CCCCC2)c1 [Example 51, 3-[4-(1,1-dimethylethyl)phenyl]-1-({3-{[2-(methyloxy)ethyl]oxy}-5-[(1-piperidinylcarbonyl)oxy]phenyl}methyl)-1H-indole-2-carboxylic acid]
5 | 20 to 80 | CC(C)(C)c1ccc(-c2c(C(=O)O)n(Cc3cc(C(F)(F)F)cc(C(F)(F)F)c3)c3ccccc23)cc1 [Example 63, 1-{[3,5-bis(trifluoromethyl)phenyl]methyl}-3-[4-(1,1-dimethylethyl)phenyl]-1H-indole-2-carboxylic acid]
6 | 20 to 80 | CC(C)(C)c1ccc(-c2c(C(=O)O)n(Cc3cccc(-c4ccc(C(=O)O)cc4)c3)c3ccccc23)cc1 [Example 7, 1-[(4′-carboxy-3-biphenylyl)methyl]-3-[4-(1,1-dimethylethyl)phenyl]-1H-indole-2-carboxylic acid]
7 | 20 to 80 | CC(C)(C)c1ccc(-c2c(C(=O)O)n(Cc3cc(O)cc(OCC4CC4)c3)c3ccccc23)cc1 [Example 3, 1-({3-[(cyclopropylmethyl)oxy]-5-hydroxyphenyl}methyl)-3-[4-(1,1-dimethylethyl)phenyl]-1H-indole-2-carboxylic acid]
8 | 20 to 80 | Cc1ccc(-c2cccc(C(=O)NCCc3cccs3)c2)cc1Cn1c(C(=O)O)c(-c2ccc(C(C)(C)C)cc2)c2ccccc21 [Example 31]
9 | 20 to 80 | CC(C)(C)c1ccc(-c2c(C(=O)O)n(Cc3cc(O)cc(-c4ccc(C(=O)O)cc4)c3)c3ccccc23)cc1 [Example 22, 1-[(4′-carboxy-5-hydroxy-3-biphenylyl)methyl]-3-[4-(1,1-dimethylethyl)phenyl]-1H-indole-2-carboxylic acid]
10 | 20 to 80 | O=C(O)c1c(Cc2cccc(C(F)(F)F)c2)c2ccccc2n1Cc1cc(OCCn2cccc2)cc(OCC2CC2)c1 [Example 54, 1-[(3-[(cyclopropylmethyl)oxy]-5-{[2-(1H-pyrrol-1-yl)ethyl]oxy}phenyl)methyl]-3-{[3-(trifluoromethyl)phenyl]methyl}-1H-indole-2-carboxylic acid]
11 | 20 to 80 | COCCOc1cc(Cn2c(C(=O)O)c(-c3cc4ccccc4o3)c3ccccc32)cc(OCCOC)c1 [Example 60, 3-(1-benzofuran-2-yl)-1-[(3,5-bis{[2-(methyloxy)ethyl]oxy}phenyl)methyl]-1H-indole-2-carboxylic acid]
12 | 20 to 80 | COCCOc1cc(Cn2c(C(=O)O)c(-c3ccc(C(C)(C)C)cc3)c3ccccc32)cc(OCCOC)c1 [Example 66, 1-[(3,5-bis{[2-(methyloxy)ethyl]oxy}phenyl)methyl]-3-[4-(1,1-dimethylethyl)phenyl]-1H-indole-2-carboxylic acid]
13 | 20 to 80 | CC(C)CCOc1cc(Cn2c(C(=O)O)c(-c3ccc(C(C)(C)C)cc3)c3ccccc32)cc(OCC2CC2)c1 [Example 6, 1-({3-[(cyclopropylmethyl)oxy]-5-[(3-methylbutyl)oxy]phenyl}methyl)-3-[4-(1,1-dimethylethyl)phenyl]-1H-indole-2-carboxylic acid]
